{
  "source": "paper PMC8524856",
  "about": "(Biochemistry, 2021)",
  "key": {"HS19.10": {"system": "HS19.10", "details": "2.0 mM L-glutamate, 250 μM PLP, 50 mM HEPES/K+, pH 8.0, 25 °C; DHAP varied"}, "[1]": {"system": "N[C@@H](COP(=O)(O)O)C(=O)O", "test": "purified protein", "details": "100 mM HEPES/K+, pH 8.0, 25 °C, 250 μM PLP"}},
  "data": [
    {"compound": "O=C(CO)COP(=O)(O)O", "note": "[DHAP]", "values": [
      {"measurement": "Km", "setting": "HS19.10", "value": "41 ± 2", "unit": "µM"}
    ]},
    {"compound": "Cj1436 (Campylobacter jejuni subsp. jejuni NCTC 11168 = ATCC 700819)", "values": [
      {"measurement": "kcat", "setting": "[1]", "value": "0.21 ± 0.02", "unit": "s⁻¹"}
    ]}
  ]
}
